Read-outs that look alike come from different tables or passages of the source.
How the values were obtained:
[1] = tested on: N87 (stomach) cancer cells; test: SRB cytotoxicity assay, N87; format: cell-based; details: Homo sapiens, 72 h, maximum tested concentration 50 µM, read-out: IC50 ± SEM, N87
Description: (§1) MCF7 (breast) or N87 (stomach) cancer cells were grown in Roswell Park Memorial Institute-1640 (RPMI-1640) medium (Thermo Fisher Scientific, Inc; Waltham, MA, USA), supplemented with 10% heat inactivated fetal bovine serum (FBS), 50 units/mL of penicillin and […] of streptomycin and maintained at 37°C in a humidified atmosphere containing 5% CO2. The cells were maintained as “monolayer culture” by serial subculturing.
(§2) Cytotoxicity was determined using Sulforhodamine B (SRB) method as previously described by Skehan et al. ([66]). Exponentially growing MCF7 and N87 cells were collected using 0.25% Trypsin-EDTA and were then seeded in 96-well plates at a density of 1000-2000 cells/well in 10% FBS and penicillin/streptomycin supplemented RPMI-1640 medium. After 24 h, cells were treated with different concentrations of test compounds and incubated for 72 h at 37°C in a humidified atmosphere containing 5% CO2. Next, the cells were fixed by adding trichloroacetic acid (TCA, 10% final conc. in wells) directly to the wells and incubated for 1 h at 4°C, then cells were washed with distilled water 5 times to remove excess TCA, media, serum proteins, and metabolites, followed by air drying. After that, the fixed cells were stained with 0.4% SRB dissolved in 1% acetic acid for 10 min at room temperature, and excess stain was removed by quickly rinsing with 1% acetic acid. The residual acetic acid was removed completely by air drying the plates for 24 h, and the dye was solubilized with Tris buffer (pH= 7.4, 10 mM) for 5 min on a shaker at 1600 rpm. The optical density (OD) of each well was measured spectrophotometrically at 564 nm with an ELISA microplate reader (ChroMate-4300, FL, USA). The IC50 values (concentration of drug resulting in 50% reduction in cell survival) were calculated according to the equation for Boltzman sigmoidal concentration–response curve using the nonlinear regression fitting models (Graph Pad, Prism Version 5).

[2] = tested on: MCF7 (breast) cancer cells; test: SRB cytotoxicity assay, MCF7; format: cell-based, human; details: maximum tested concentration 50 µM, read-out: IC50 ± SEM, MCF7
Description: as §1, §2

HCT116 cell line = test: MTT anti-proliferative assay, HCT116; format: cell-based, human; details: maximum tested concentration 50 µM, read-out: IC50 ± SEM, HCT116
Description: The test compounds were evaluated for anti-proliferative activity using the MTT viability assay against HCT116 cell line. Cells were seeded in triplicate in 96-well plates at a density of 10x 10^3 cells/mL in a total volume of 200 µL per well. 0.1% of DMSO was used as a vehicle control. Each well was treated with 2 µL test compounds, which had been pre-prepared as stock solutions in […] to furnish the concentration range of study, 0.1 µM to 50 µM, and re-incubated for a further 72 h at 37°C in a humidified atmosphere containing 5% CO2. The culture medium was then removed, and the cells were washed with 100 µL PBS and 100 µL MTT was added, to reach a final concentration of 1 mg/mL MTT. Cells were incubated for 3 h in darkness at 37°C. After that, MTT solution was removed and MTT was solubilized by adding […] DMSO. The cells were maintained at room temperature in darkness for 20 min to ensure thorough color diffusion before reading the absorbance using a microplate reader at 570 nm. All experiments were conducted in triplicates. Results were expressed as percentage viability relative to vehicle control (100%). Dose response curves were plotted and IC50 values (concentration of drug resulting in 50% reduction in cell survival) were obtained using the commercial software package Prism (GraphPad Software, Inc., La Jolla, CA, USA).

HL60 leukemia cell line = test: CellTiter-Blue cell viability assay, HL60; format: cell-based; details: Homo sapiens, HL-60; CellTiter-Blue, 48 h; maximum tested concentration 20 µM; read-out: IC50 ± SEM, HL60
Description: (§3) HL60, K562, MV4-11 and NB4 were purchased from CLS Cell Line Service GmbH (Eppelheim, Germany). All cell lines were cultured in RPMI-1640 medium supplemented with 10% fetal bovine serum (FBS) (Thermo Fisher Scientific) and 0.1% ciprofloxacin (2.5mg/ml; Cipla Limited; Mumbai, India), and were maintained at 37°C in the presence of 21% O2 and 5% CO2.
(§4) Cell viability was determined using the CellTiter®-Blue Cell Viability Assay kit (Promega, Madison, WI, USA). Approximately 10^4 cells were counted and plated in a 96-well plate in the presence of test compounds ranging from 0.01 to 10 or 20 µM in triplicate and were incubated for 48 h at 37°C in a humidified incubator. After the incubation period was complete, 20 µL of CellTiter®-Blue Cell Viability Assay reagent was added to each well and incubated for additional 2 h for the development of florescence. Florescence was measured at Ex/Em 540/590 on SpectraMax® i3 Multi-Mode microplate reader (Molecular Devices, LLC; San Jose, CA, USA) and plotted against drug concentration to determine the IC50 of the test compounds. The IC50 was obtained by non-linear regression model using GraphPad Prism 6.07 (GraphPad Software, Inc, USA).

[3] = tested on: MV4-11 leukemia cell line; test: CellTiter-Blue cell viability assay, MV4-11; format: cell-based; details: Homo sapiens, CellTiter-Blue, 48 h, maximum tested concentration 20 µM, read-out: IC50 ± SEM, MV4-11
Description: as §3, §4

K562 leukemia cell line = test: CellTiter-Blue cell viability assay, K562; format: cell-based; details: Homo sapiens, CellTiter-Blue, 48 h, maximum tested concentration 20 µM, read-out: IC50 ± SEM, K562
Description: as §3, §4

[4] = tested on: HT-29 colon cancer cell line; set-up: method as in PMID 29617135; details: read-out: GI50, HT29 (Colon Cancer); cited from earlier work

Row | Structure (SMILES) | melting point [°C] | IC50 (HCT116 cell line; Homo sapiens, HCT-116, 72 h) [µM] | IC50 (HL60 leukemia cell line) [µM] | IC50 [3] [µM] | IC50 (K562 leukemia cell line) [µM] | IC50 (HCT116 cell line; 72 h) [µM] | IC50 [1] [µM] | IC50 ([2]; Homo sapiens, MCF7, 72 h) [µM] | IC50 ([2]; 72 h) [µM] | GI50 [4] [µM]
1 | Nc1ccc(CC(=O)NCc2ccccc2)cc1 [Compound 3a, 2-(4-aminophenyl)-N-benzylacetamide] | 140 to 141 | > 100 | – | – | – | > 50 | > 50 | > 100 | > 50 | –
2 | Cc1ccc(S(=O)(=O)Nc2ccc(CC(=O)NCc3ccccc3)cc2)cc1 [Compound 4g, N-benzyl-2-(4-((4-methylphenyl)sulfonamido)phenyl)acetamide] | 140 | > 50 | > 20 | > 20 | > 20 | – | – | > 50 | – | –
3 | O=C(Cc1ccc(-c2ccccc2)cc1)NCc1cccc(F)c1 [KX1-136] | – | – | – | – | – | – | – | – | – | 0.877
4 | CCC(=O)Nc1ccc(CC(=O)NCc2ccccc2)cc1 [Compound 4b, N-(4-(2-(benzylamino)-2-oxoethyl)phenyl)propionamide] | 210 | > 50 | > 20 | > 20 | > 20 | – | 32 ± 6.34 | 27.7 ± 9.38 | – | –

The next lines start with results.

Row | melting point [°C] | IC50 (HCT116 cell line; Homo sapiens, HCT-116, 72 h) [µM] | IC50 (HL60 leukemia cell line) [µM] | IC50 [3] [µM] | IC50 (K562 leukemia cell line) [µM] | IC50 (HCT116 cell line; 72 h) [µM] | Structure (SMILES) | IC50 [1] [µM] | IC50 ([2]; Homo sapiens, MCF7, 72 h) [µM] | IC50 ([2]; 72 h) [µM] | GI50 [4] [µM]
5 | 190 | – | – | – | – | – | O=C(Cc1ccc(NC(=O)c2ccc(Cl)cc2)cc1)NCc1ccccc1 [Compound 4f, N-(4-(2-(benzylamino)-2-oxoethyl)phenyl)-4-chlorobenzamide] | 48.3 ± 7.44 | > 50 | – | –
6 | 214 | 19 ± 4.18 | 2.96 ± 0.25 | 3.2 ± 0.09 | 2.68 ± 0.03 | – | O=C(Cc1ccc(NC(=O)c2cccc(F)c2)cc1)NCc1ccccc1 [Compound 4d, N-(4-(2-(benzylamino)-2-oxoethyl)phenyl)-3-fluorobenzamide] | > 50 | 6.55 ± 1.34 | – | –
7 | – | 18.8 | – | – | – | 18.8 ± 3.06 | CC(=O)Nc1ccc(CC(=O)NCc2ccccc2)cc1 [Compound 4a, 2-(4-acetamidophenyl)-N-benzylacetamide] | > 50 | 29.3 | 29.3 ± 4.64 | –
8 | 212 | 19.7 ± 4.79 | 5.27 ± 1.94 | 11.9 ± 0.96 | > 20 | – | O=C(Cc1ccc(NC(=O)c2ccccc2)cc1)NCc1ccccc1 [Compound 4c, N-(4-(2-(benzylamino)-2-oxoethyl)phenyl)benzamide] | > 50 | 5.11 ± 3.03 | – | –
